Data from patent US20250163066A1, “PROTACs of MALT1” (TEGID THERAPEUTICS, INC., priority 2022, published 2025).

Biological target: MALT1 (Homo sapiens (Human), UniProt Q9UDY8)
Experiment: MALT1 enzymatic activity inhibition (fluorescence, Ac-LRSR-AMC substrate)
Assay type: biochemical
Conditions: recombinant MALT1 1.5 ng/μl, Ac-LRSR-AMC 1 μM
Description: Compound activity was determined using recombinant MALT1 protein (Creative Biomart, Cat #MALT1-28H) and Ac-LRSR-AMC Substrate in an in vitro enzymatic reaction. The enzymatic assay used to determine activity was a Fluorescence assay using a Microplate Reader ClarioStar Plus. The enzymatic reaction was carried out in 1× Assay Buffer (50 mM HEPES pH 7.2-7.4, 100 mM NaCl, 900 mM Sodium citrate, 10 mM DTT). The compounds were dispensed on a 384-well Diamond Well Plate (Axygen, Cat #P-384-120SQ-C—S) using the Biomek FX liquid handling system at 100× solutions of compounds in DMSO. 2.5×MALT1 mix (final concentration 1.5 ng/μl of MALT1) was prepared in 1× Assay Buffer and 8 μl of mixture per well were added into 384w white Reaction Plates with NBS (Corning, Cat #4513). 8 μl of 1× Assay Buffer were used for negative control. Plates were centrifuged for 1 min at 200 g. Next, the compounds were added to Reaction plates using Biomek station via following steps: 1 μl of 100× compounds (in DMSO) was mixed thoroughly with 19 μl of 1× Assay Buffer, then 4 μl of this mixture were added to Reaction plates with 8 μl of MALT1 mix. Plates were centrifuged for 1 min at 200 g and incubated for 10 minutes at rt. Next, 2.5× Ac-LRSR-AMC mix (final concentration 1 μM of Ac-LRSR-AMC) was prepared in 1× Assay Buffer and 8 μl of mixture per well were added to Reaction Plates using Biomek station. Plates were centrifuged for 1 min at 200 g, then the fluorescence was measured immediately using Microplate Reader. Plates were incubated for 30 minutes at 37° C., then for 30 minutes at rt. The fluorescence was measured after the whole incubation using Microplate Reader. The reaction signal was calculated as the subtraction of the first data set values from the second. The % inhibition was then used to calculate the IC50 values. The results of this assay are shown in the Table A. The values of EC50 shown as a letters A-E, where: A≤0.2 μM; 0.2 μM<B≤0.5 μM; 0.5 μM<C≤1 μM; 1<D≤5 μM; E >5.

Chain of MALT1 (Q9UDY8 whole entry): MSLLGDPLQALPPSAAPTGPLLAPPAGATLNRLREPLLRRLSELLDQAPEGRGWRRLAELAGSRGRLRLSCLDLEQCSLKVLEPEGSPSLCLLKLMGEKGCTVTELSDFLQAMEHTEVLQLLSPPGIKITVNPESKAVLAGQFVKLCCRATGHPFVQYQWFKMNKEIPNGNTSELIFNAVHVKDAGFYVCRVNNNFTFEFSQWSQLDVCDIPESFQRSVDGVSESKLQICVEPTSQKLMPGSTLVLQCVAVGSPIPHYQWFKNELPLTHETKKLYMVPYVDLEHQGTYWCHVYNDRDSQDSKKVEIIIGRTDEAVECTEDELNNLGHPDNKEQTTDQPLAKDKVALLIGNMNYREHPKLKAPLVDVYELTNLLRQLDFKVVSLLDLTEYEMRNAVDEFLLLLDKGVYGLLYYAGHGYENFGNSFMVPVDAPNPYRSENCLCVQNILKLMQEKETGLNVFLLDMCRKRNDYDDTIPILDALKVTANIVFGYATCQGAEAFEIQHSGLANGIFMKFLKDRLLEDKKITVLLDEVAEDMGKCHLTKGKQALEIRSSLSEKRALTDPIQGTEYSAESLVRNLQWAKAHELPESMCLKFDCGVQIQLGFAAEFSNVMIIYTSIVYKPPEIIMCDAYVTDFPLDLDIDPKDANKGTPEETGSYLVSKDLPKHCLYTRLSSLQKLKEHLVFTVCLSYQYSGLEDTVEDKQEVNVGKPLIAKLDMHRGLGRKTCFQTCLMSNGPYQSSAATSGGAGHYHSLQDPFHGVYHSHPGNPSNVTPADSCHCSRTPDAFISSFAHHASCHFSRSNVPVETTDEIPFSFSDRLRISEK

EC50 [µM] | Compound
> 5 | COc1cc(-c2c(NC(=O)Nc3cnc(-c4noc(CNC(=O)CCOCCN5CCN(c6ccc7c(c6)CN(C6CCC(=O)NC6=O)C7=O)CC5)n4)c(C)c3)cnc3ccnn23)cc(OC)c1OC (centres unmarked) [Compound 1, 3-(2-{4-[2-(2,6-Dioxopiperidin-3-yl)-1-oxo-2,3-dihydro-1H-isoindol-5-yl]piperazin-1-yl}ethoxy)-N-[(3-{3-methyl-5-[({[7-(3,4,5-trimethoxyphenyl)pyrazolo[1,5-a]pyrimidin-6-yl]amino}carbonyl)amino]pyridin-2-yl}-1,2,4-oxadiazol-5-yl)methyl]propenamide]
0.2 to 0.5 | Cc1cc(NC(=O)Nc2cnc3ccnn3c2C2CCCC2)cnc1-c1noc(CCCCCC(=O)N2CCN(c3ccc4c(c3)CN(C3CCC(=O)NC3=O)C4=O)CC2)n1 (centres unmarked) [Compound 4, 1-(7-cyclopentylpyrazolo[1,5-a]pyrimidin-6-yl)-3-[6-[5-[6-[4-[2-(2,6-dioxo-3-piperidyl)-1-oxo-isoindolin-5-yl]piperazin-1-yl]-6-oxo-hexyl]-1,2,4-oxadiazol-3-yl]-5-methyl-3-pyridyl]urea]
≤ 0.2 | Cc1cc(NC(=O)Nc2cnc3ccnn3c2C2CCCC2)cnc1-c1nnc(CCCCCC(=O)N2CCN(c3ccc4c(c3)CN(C3CCC(=O)NC3=O)C4=O)CC2)o1 (centres unmarked) [Compound 5, 1-(7-cyclopentylpyrazolo[1,5-a]pyrimidin-6-yl)-3-[6-[5-[6-[4-[2-(2,6-dioxo-3-piperidyl)-1-oxo-isoindolin-5-yl]piperazin-1-yl]-6-oxo-hexyl]-1,3,4-oxadiazol-2-yl]-5-methyl-3-pyridyl]urea]
0.5 to 1 | Cc1cc(NC(=O)Nc2cnc3ccnn3c2C2CCCC2)cnc1-c1cn(CCCCCCC(=O)N2CCN(c3ccc4c(c3)CN(C3CCC(=O)NC3=O)C4=O)CC2)nn1 (centres unmarked) [Compound 6, 1-(7-cyclopentylpyrazolo[1,5-a]pyrimidin-6-yl)-3-[6-[1-[7-[4-[2-(2,6-dioxo-3-piperidyl)-1-oxo-isoindolin-5-yl]piperazin-1-yl]-7-oxo-heptyl]triazol-4-yl]-5-methyl-3-pyridyl]urea]
1 to 5 | Cc1cc(NC(=O)Nc2cnc3ccnn3c2C2CCCC2)cnc1-c1cn(CCCCOCC(=O)N2CCN(c3ccc4c(c3)CN(C3CCC(=O)NC3=O)C4=O)CC2)nn1 (centres unmarked) [Compound 8, 1-(7-cyclopentylpyrazolo[1,5-a]pyrimidin-6-yl)-3-[6-[1-[4-[2-[4-[2-(2,6-dioxo-3-piperidyl)-1-oxo-isoindolin-5-yl]piperazin-1-yl]-2-oxo-ethoxy]butyl]triazol-4-yl]-5-methyl-3-pyridyl]urea]
> 5 | Cc1cc(NC(=O)Nc2cnc3nccn3c2C2CCCC2)cnc1-c1noc(CCCCCC(=O)N2CCN(c3ccc4c(c3)CN(C3CCC(=O)NC3=O)C4=O)CC2)n1 (centres unmarked) [Compound 9, 1-(5-cyclopentylimidazo[1,2-a]pyrimidin-6-yl)-3-[6-[5-[6-[4-[2-(2,6-dioxo-3-piperidyl)-1-oxo-isoindolin-5-yl]piperazin-1-yl]-6-oxo-hexyl]-1,2,4-oxadiazol-3-yl]-5-methyl-3-pyridyl]urea]
1 to 5 | Cc1cc(NC(=O)Nc2cnc3c(Cl)cnn3c2C2CCCC2)cnc1-c1noc(CCCN2CCN(c3ccc4c(c3)CN(C3CCC(=O)NC3=O)C4=O)CC2)n1 (centres unmarked) [Compound 19, 1-(3-chloro-7-cyclopentyl-pyrazolo[1,5-a]pyrimidin-6-yl)-3-[6-[5-[3-[4-[2-(2,6-dioxo-3-piperidyl)-1-oxo-isoindolin-5-yl]piperazin-1-yl]propyl]-1,2,4-oxadiazol-3-yl]-5-methyl-3-pyridyl]urea]
1 to 5 | Cc1cc(NC(=O)Nc2cnc3c(Cl)cnn3c2C2CCCC2)cnc1-c1noc(CCCCN2CCN(c3ccc4c(c3)CN(C3CCC(=O)NC3=O)C4=O)CC2)n1 (centres unmarked) [Compound 20, 1-(3-chloro-7-cyclopentyl-pyrazolo[1,5-a]pyrimidin-6-yl)-3-[6-[5-[4-[4-[2-(2,6-dioxo-3-piperidyl)-1-oxo-isoindolin-5-yl]piperazin-1-yl]butyl]-1,2,4-oxadiazol-3-yl]-5-methyl-3-pyridyl]urea]
≤ 0.2 | Cc1cc(NC(=O)Nc2cnc3ccnn3c2C2CCCC2)cnc1-c1noc(CCCCN2CCN(c3ccc4c(c3)CN(C3CCC(=O)NC3=O)C4=O)CC2)n1 (centres unmarked) [Compound 21, 1-(7-cyclopentylpyrazolo[1,5-a]pyrimidin-6-yl)-3-[6-[5-[4-[4-[2-(2,6-dioxo-3-piperidyl)-1-oxo-isoindolin-5-yl]piperazin-1-yl]butyl]-1,2,4-oxadiazol-3-yl]-5-methyl-3-pyridyl]urea]
1 to 5 | O=C1CCC(N2Cc3cc(N4CCN(CCCCc5nc(-c6ncc(NC(=O)Nc7cnc8c(Cl)cnn8c7C7CCCC7)cc6Cl)no5)CC4)ccc3C2=O)C(=O)N1 (centres unmarked) [Compound 22, N-(3-Chloro-7-cyclopentylpyrazolo[1,5-a]pyrimidin-6-yl)-N′-{5-chloro-6-[5-(4-{4-[2-(2,6-dioxopiperidin-3-yl)-1-oxo-2,3-dihydro-1H-isoindol-5-yl]piperazin-1-yl}butyl)-1,2,4-oxadiazol-3-yl]pyridin-3-yl}urea]
1 to 5 | Cc1cc(NC(=O)Nc2cnc3c(Cl)cnn3c2C2CCCC2)cnc1-c1noc(CCCN2CCN(c3cc4c(cc3F)C(=O)N(C3CCC(=O)NC3=O)C4=O)CC2)n1 (centres unmarked) [Compound 24, 1-(3-chloro-7-cyclopentyl-pyrazolo[1,5-a]pyrimidin-6-yl)-3-[6-[5-[3-[4-[2-(2,6-dioxo-3-piperidyl)-6-fluoro-1,3-dioxo-isoindolin-5-yl]piperazin-1-yl]propyl]-1,2,4-oxadiazol-3-yl]-5-methyl-3-pyridyl]urea]
0.2 to 0.5 | CO[C@@H](C)c1c(NC(=O)Nc2cc(Cl)cnc2OCCNC(=O)CCOCCN2CCN(c3ccc4c(c3)CN(C3CCC(=O)NC3=O)C4=O)CC2)cnc2ccnn12 (stereo partly drawn) [Compound 25, N-[2-[[5-chloro-3-[[7-[(1S)-1-methoxyethyl]pyrazolo[1,5-a]pyrimidin-6-yl]carbamoylamino]-2-pyridyl]oxy]ethyl]-3-[2-[4-[2-(2,6-dioxo-3-piperidyl)-1-oxo-isoindolin-5-yl]piperazin-1-yl]ethoxy]propanamide]
> 5 | COc1cc(-c2c(NC(=O)Nc3cnc(N4CCN(C(=O)COCC(=O)Nc5cccc6c5C(=O)N(C5CCC(=O)NC5=O)C6=O)CC4)c(C)c3)cnc3ccnn23)cc(OC)c1OC (centres unmarked) [Compound 26, N-[2-(2,6-dioxo-3-piperidyl)-1,3-dioxo-isoindolin-4-yl]-2-[2-[4-[3-methyl-5-[[7-(3,4,5-trimethoxyphenyl)pyrazolo[1,5-a]pyrimidin-6-yl]carbamoylamino]-2-pyridyl]piperazin-1-yl]-2-oxo-ethoxy]acetamide]
> 5 | COc1cc(-c2c(NC(=O)Nc3cnc(NCCOCCOCCC(=O)N4CCN(c5ccc6c(c5)CN(C5CCC(=O)NC5=O)C6=O)CC4)c(C)c3)cnc3ccnn23)cc(OC)c1OC (centres unmarked) [Compound 27, 1-[6-[2-[2-[3-[4-[2-(2,6-dioxo-3-piperidyl)-1-oxo-isoindolin-5-yl]piperazin-1-yl]-3-oxo-propoxy]ethoxy]ethylamino]-5-methyl-3-pyridyl]-3-[7-(3,4,5-trimethoxyphenyl)pyrazolo[1,5-a]pyrimidin-6-yl]urea]
> 5 | COc1cc(-c2c(NC(=O)Nc3cnc(-n4cc(C(=O)NCCOCCOCCC(=O)N5CCN(c6ccc7c(c6)CN(C6CCC(=O)NC6=O)C7=O)CC5)cn4)c(C)c3)cnc3ccnn23)cc(OC)c1OC (centres unmarked) [Compound 28, N-[2-[2-[3-[4-[2-(2,6-dioxo-3-piperidyl)-1-oxo-isoindolin-5-yl]piperazin-1-yl]-3-oxo-propoxy]ethoxy]ethyl]-1-[3-methyl-5-[[7-(3,4,5-trimethoxyphenyl)pyrazolo[1,5-a]pyrimidin-6-yl]carbamoylamino]-2-pyridyl]pyrazole-4-carboxamide]
> 5 | Cc1cc(NC(=O)Nc2cnc3ccnn3c2C2CCCO2)cnc1NCCOCCOCCOCCC(=O)N1CCN(c2ccc3c(c2)CN(C2CCC(=O)NC2=O)C3=O)CC1 (centres unmarked) [Compound 29, 1-[6-[2-[2-[2-[3-[4-[2-(2,6-dioxo-3-piperidyl)-1-oxo-isoindolin-5-yl]piperazin-1-yl]-3-oxo-propoxy]ethoxy]ethoxy]ethylamino]-5-methyl-3-pyridyl]-3-(7-tetrahydrofuran-2-ylpyrazolo[1,5-a]pyrimidin-6-yl)urea]

Compound | EC50 [µM]
Cc1cc(NC(=O)Nc2cnc3ccnn3c2C2CCCC2)cnc1-c1noc(COCCCCN2CCN(c3ccc4c(c3)CN(C3CCC(=O)NC3=O)C4=O)CC2)n1 (centres unmarked) [Compound 11, 1-(7-cyclopentylpyrazolo[1,5-a]pyrimidin-6-yl)-3-[6-[5-[4-[4-[2-(2,6-dioxo-3-piperidyl)-1-oxo-isoindolin-5-yl]piperazin-1-yl]butoxymethyl]-1,2,4-oxadiazol-3-yl]-5-methyl-3-pyridyl]urea] | 0.2 to 0.5
